# Earlier results, collected in patent publication US8679304B2, “Apparatus for creating bioactive solution” (priority 2008, dated 2014).
# System: Cryptosporidium oocysts
# Settings: pH 7
structure (smiles),measurement,value
[O][Cl+][O-] [chlorine dioxide],approximate CT values for 99% inactivation,~78
